Where two headings read alike, the source gives them in different places.
Assays:
recombinant human DHODH = recombinant human DHODH (Homo sapiens (Human), UniProt Q02127); assay: DHODH enzyme assay (Assay A), DCIP absorbance; assay type: biochemical
Procedure: Inhibition of human dihydroorotate dehydrogenase (DHODH) by example compounds as described herein was determined using one of two assays as described below.
DHODH enzyme assays were performed with 6 nM recombinant human DHODH (purified essentially as described by Walse et al., Biochemistry, 47, 8929-8936 (2008)). The reaction mixture consisted of 1 mM DL-dihydroorotic acid (#D7003, Sigma-Aldrich), 100 μM 3,4-dimethoxy-5-methyl-p-benzoquinone (#D9150, Sigma-Aldrich), and 100 μM 2,6-dichlorophenolindophenol sodium salt (DCIP) (#D1878, Sigma-Aldrich) in enzyme buffer (50 mM Tris-HCl pH 8.0, 0.1% Triton X-100, 150 mM KCl). A stock solution of 20 mM DCIP was prepared in enzyme buffer and filtered through Whatman paper just before use. Reactions were performed in a total volume of 100 μL, consisting of 1 μL of compound, 49 μL of enzyme and 50 μL of reaction mixture. Loss in absorbance by chromogen DCIP was measured at 595 nm following a 70 minute incubation at 32° C.

MOLM-13 cells = assay: MOLM-13 cell viability (Assay B), Cell Titer-Glo; assay type: cell-based; details: Homo sapiens, read-out: IC50 MOLM13 inhibition activity
Procedure: MOLM-13 cells (an acute myeloid leukemia cell line) were plated in RPMI supplied with 10% FBS and 1% Pen/Strep in 384-well plates at 1,000 cells per well on day 0. On day 1, treatment of the cells with compound (concentration range 10E-5 and 6E-12 M) was initiated in the presence or absence of 100 μM uridine. After 72 hours incubation of the cells with or without test compound, the number of viable cells per well was assessed by Cell Titer-Glo Luminescent Cell Viability Assay (Promega, Madison, WI, USA). […] Each condition was tested in duplicate and the potency of test compounds was determined from two independent experiments.

[1] = read-out: IC50 DHODH inhibition activity
[2] = bins ≥10 nM-<100 nM and <10 nM, read-out: IC50 DHODH inhibition activity
[3] = MOLM-13, 72 hours, bins ≥10 nM-<100 nM and <10 nM

Sequence of recombinant human DHODH (Q02127 whole entry): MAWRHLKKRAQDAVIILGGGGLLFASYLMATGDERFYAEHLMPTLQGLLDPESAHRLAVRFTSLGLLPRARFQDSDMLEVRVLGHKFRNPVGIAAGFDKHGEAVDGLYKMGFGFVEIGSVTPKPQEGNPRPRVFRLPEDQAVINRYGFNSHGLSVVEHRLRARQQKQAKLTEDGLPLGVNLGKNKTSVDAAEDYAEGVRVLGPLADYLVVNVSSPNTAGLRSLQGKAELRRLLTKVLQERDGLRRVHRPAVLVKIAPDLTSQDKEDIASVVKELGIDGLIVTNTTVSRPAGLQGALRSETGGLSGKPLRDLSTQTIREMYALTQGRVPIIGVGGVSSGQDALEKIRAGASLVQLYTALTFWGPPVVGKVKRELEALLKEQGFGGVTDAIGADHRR

Row | Structure (SMILES) | IC50 (recombinant human DHODH; [1]) | IC50 (MOLM-13 cells; MOLM-13, 72 h) | IC50 (recombinant human DHODH; [2]) | IC50 (MOLM-13 cells; [3]) | IC50 (recombinant human DHODH)
1 | COc1ccc(F)c(-n2ncc3c2COC[C@H]3NC(=O)c2noc3c2CCCC3)c1Cl [Ex-31, (S)—N-(1-(2-chloro-6-fluoro-3-methoxyphenyl)-1,4,5,7-tetrahydropyrano[3,4-c]pyrazol-4-yl)-4,5,6,7-tetrahydrobenzo[d]isoxazole-3-carboxamide] | < 10 nM | < 10 nM |  |  | 
2 | Cc1cccc(Cl)c1-n1ncc2c1COC[C@H]2NC(=O)c1noc2c1CCCC2 [Ex-38, (S)—N-(1-(2-chloro-6-methylphenyl)-1,4,5,7-tetrahydropyrano[3,4-c]pyrazol-4-yl)-4,5,6,7-tetrahydrobenzo[d]isoxazole-3-carboxamide] |  |  | < 10 nM | < 10 nM | 
3 | Cc1cccc(-n2ncc3c2COC[C@H]3NC(=O)c2noc3c2CCCC3)c1Cl [Ex-18, (S)—N-(1-(2-chloro-3-methylphenyl)-1,4,5,7-tetrahydropyrano[3,4-c]pyrazol-4-yl)-4,5,6,7-tetrahydrobenzo[d]isoxazole-3-carboxamide] |  |  | < 10 nM | < 10 nM | 
4 | COc1ccc(F)c(-n2ncc3c2COC[C@H]3NC(=O)c2n[nH]c3c2CCCC3)c1Cl [Ex-30, (S)—N-(1-(2-chloro-6-fluoro-3-methoxyphenyl)-1,4,5,7-tetrahydropyrano[3,4-c]pyrazol-4-yl)-4,5,6,7-tetrahydro-1H-indazole-3-carboxamide] |  |  | 10 to 100 nM | < 10 nM | 
5 | COc1cccc(-n2ncc3c2COC[C@H]3NC(=O)c2n[nH]c3c2CCCC3)c1Cl [Ex-24, (S)—N-(1-(2-chloro-3-methoxyphenyl)-1,4,5,7-tetrahydropyrano[3,4-c]pyrazol-4-yl)-4,5,6,7-tetrahydro-1H-indazole-3-carboxamide] |  |  | 10 to 100 nM | < 10 nM | 
6 | O=C(N[C@@H]1COCc2c1cnn2-c1cccc(C(=O)N2CCCCC2)c1Cl)c1ncn2c1CCCC2 [Ex-72, (S)—N-(1-(2-chloro-3-(piperidine-1-carbonyl)phenyl)-1,4,5,7-tetrahydropyrano[3,4-c]pyrazol-4-yl)-5,6,7,8-tetrahydroimidazo[1,5-a]pyridine-1-carboxamide] |  |  | < 10 nM | < 10 nM | 
7 | Cc1cccc(Cl)c1-n1ncc2c1COC[C@H]2NC(=O)c1ncc2n1CCCC2 [Ex-36, (S)—N-(1-(2-chloro-6-methylphenyl)-1,4,5,7-tetrahydropyrano[3,4-c]pyrazol-4-yl)-5,6,7,8-tetrahydroimidazo[1,5-a]pyridine-3-carboxamide] |  |  | < 10 nM | < 10 nM | 
8 | Cc1cccc(-n2ncc3c2COC[C@H]3NC(=O)c2ncn3c2CCCC3)c1Cl [Ex-14, (S)—N-(1-(2-chloro-3-methylphenyl)-1,4,5,7-tetrahydropyrano[3,4-c]pyrazol-4-yl)-5,6,7,8-tetrahydroimidazo[1,5-a]pyridine-1-carboxamide] |  | < 10 nM | < 10 nM |  | 
9 | CCc1c(C(=O)N[C@@H]2COCc3c2cnn3-c2cccc(C)c2Cl)n[nH]c1C [Ex-19, (S)—N-(1-(2-chloro-3-methylphenyl)-1,4,5,7-tetrahydropyrano[3,4-c]pyrazol-4-yl)-4-ethyl-5-methyl-1H-pyrazole-3-carboxamide] |  |  | 10 to 100 nM | 10 to 100 nM | 
10 | CN(C)C(=O)COc1cccc(-n2ncc3c2COC[C@H]3NC(=O)c2ncn3c2CCCC3)c1Cl [Ex-64, (S)—N-(1-(2-chloro-3-(2-(dimethylamino)-2-oxoethoxy)phenyl)-1,4,5,7-tetrahydropyrano[3,4-c]pyrazol-4-yl)-5,6,7,8-tetrahydroimidazo[1,5-a]pyridine-1-carboxamide] |  |  |  | 10 to 100 nM | 10 to 100 nM
11 | COc1cccc(-n2ncc3c2COC[C@H]3NC(=O)c2noc3c2CCCC3)c1Cl [Ex-25, (S)—N-(1-(2-chloro-3-methoxyphenyl)-1,4,5,7-tetrahydropyrano[3,4-c]pyrazol-4-yl)-4,5,6,7-tetrahydrobenzo[d]isoxazole-3-carboxamide] |  |  | 10 to 100 nM | < 10 nM | 
12 | COCCOc1cccc(-n2ncc3c2COC[C@H]3NC(=O)c2ncn3c2CCCC3)c1Cl [Ex-67, (S)—N-(1-(2-chloro-3-(2-methoxyethoxy)phenyl)-1,4,5,7-tetrahydropyrano[3,4-c]pyrazol-4-yl)-5,6,7,8-tetrahydroimidazo[1,5-a]pyridine-1-carboxamide] | < 10 nM |  |  | < 10 nM | 
13 | O=C(N[C@@H]1COCc2c1cnn2-c1cccc(C(=O)N2CCCC2)c1Cl)c1ncn2c1CCCC2 [Ex-71, (S)—N-(1-(2-chloro-3-(pyrrolidine-1-carbonyl)phenyl)-1,4,5,7-tetrahydropyrano[3,4-c]pyrazol-4-yl)-5,6,7,8-tetrahydroimidazo[1,5-a]pyridine-1-carboxamide] |  |  | 10 to 100 nM | 10 to 100 nM | 
14 | CCc1c(C(=O)N[C@@H]2COCc3c2cnn3-c2c(F)ccc(OC)c2Cl)n[nH]c1C [Ex-32, (S)—N-(1-(2-chloro-6-fluoro-3-methoxyphenyl)-1,4,5,7-tetrahydropyrano[3,4-c]pyrazol-4-yl)-4-ethyl-5-methyl-1H-pyrazole-3-carboxamide] |  | < 10 nM | 10 to 100 nM |  | 
15 | O=C(N[C@@H]1COCc2c1cnn2-c1cccc(OCCO)c1Cl)c1ncn2c1CCCC2 [Ex-68, (S)—N-(1-(2-chloro-3-(2-hydroxyethoxy)phenyl)-1,4,5,7-tetrahydropyrano[3,4-c]pyrazol-4-yl)-5,6,7,8-tetrahydroimidazo[1,5-a]pyridine-1-carboxamide] |  | 10 to 100 nM |  |  | 10 to 100 nM
16 | O=C(N[C@@H]1COCc2c1cnn2-c1cccc(C(=O)N2CCOCC2)c1Cl)c1ncn2c1CCCC2 [Ex-73, (S)—N-(1-(2-chloro-3-(morpholine-4-carbonyl)phenyl)-1,4,5,7-tetrahydropyrano[3,4-c]pyrazol-4-yl)-5,6,7,8-tetrahydroimidazo[1,5-a]pyridine-1-carboxamide] |  |  |  | 10 to 100 nM | 10 to 100 nM
17 | CCc1c(C(=O)N[C@@H]2COCc3c2cnn3-c2cccc(OC)c2Cl)n[nH]c1C [Ex-26, (S)—N-(1-(2-chloro-3-methoxyphenyl)-1,4,5,7-tetrahydropyrano[3,4-c]pyrazol-4-yl)-4-ethyl-5-methyl-1H-pyrazole-3-carboxamide] |  |  | < 10 nM | < 10 nM | 
18 | CCc1c(C(=O)N[C@@H]2COCc3c2cnn3-c2c(C)cccc2Cl)n[nH]c1C [Ex-39, (S)—N-(1-(2-chloro-6-methylphenyl)-1,4,5,7-tetrahydropyrano[3,4-c]pyrazol-4-yl)-4-ethyl-5-methyl-1H-pyrazole-3-carboxamide] |  | 10 to 100 nM | 10 to 100 nM |  | 

— patent publication US20250388602A1 (Genase Therapeutics B.V., priority 2022, published 2025)
